Experiments:
[1] = biological target: T1, Transient receptor potential cation channel subfamily V member 1 (Homo sapiens, UniProt Q8NER1); experiment: Agonist activity at human TRPV1 overexpressed in HEK293 cells incubated for 1 hr by Fluo-4 AM dye based microscopic analysis; format: cell-based
[2] = Toxicity in Kunming mouse assessed as decrease in core body temperature at 50 mg/kg measured after 15 mins; format: organism-based; conditions: in vivo, 0.25 h
[3] = Toxicity in Kunming mouse assessed as decrease in core body temperature at 50 mg/kg measured upto hrs; format: organism-based; conditions: in vivo
[4] = biological target: T1, Transient receptor potential cation channel subfamily V member 1; experiment: Binding affinity to human TRPV1 assessed as dissociation constant by SPR analysis

T1 sequence (Q8NER1 whole entry): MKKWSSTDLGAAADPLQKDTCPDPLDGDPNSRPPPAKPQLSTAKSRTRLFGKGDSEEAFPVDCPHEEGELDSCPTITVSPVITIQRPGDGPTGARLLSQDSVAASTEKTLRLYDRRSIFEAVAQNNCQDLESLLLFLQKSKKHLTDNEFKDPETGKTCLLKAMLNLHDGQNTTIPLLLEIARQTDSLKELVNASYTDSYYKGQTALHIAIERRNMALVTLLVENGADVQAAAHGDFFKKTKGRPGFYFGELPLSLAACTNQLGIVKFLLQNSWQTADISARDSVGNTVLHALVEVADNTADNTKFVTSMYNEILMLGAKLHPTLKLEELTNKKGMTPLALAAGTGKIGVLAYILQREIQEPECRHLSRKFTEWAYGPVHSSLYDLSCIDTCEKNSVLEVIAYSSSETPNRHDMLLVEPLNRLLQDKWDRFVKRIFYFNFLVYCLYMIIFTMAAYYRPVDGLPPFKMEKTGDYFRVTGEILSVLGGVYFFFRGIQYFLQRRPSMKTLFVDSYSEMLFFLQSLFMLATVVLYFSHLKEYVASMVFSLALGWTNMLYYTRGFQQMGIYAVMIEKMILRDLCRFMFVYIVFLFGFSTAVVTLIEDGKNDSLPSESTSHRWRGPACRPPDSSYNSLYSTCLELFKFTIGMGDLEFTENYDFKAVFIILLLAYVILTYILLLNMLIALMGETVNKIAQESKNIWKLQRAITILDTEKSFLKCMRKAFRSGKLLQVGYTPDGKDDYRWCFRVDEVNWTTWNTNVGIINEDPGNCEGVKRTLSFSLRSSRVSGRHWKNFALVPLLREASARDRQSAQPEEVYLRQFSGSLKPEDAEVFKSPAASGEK

Row | SMILES | EC50 [1] [µM] | further results
1 | CCCCCc1cc(O)c(NC(=O)c2ccc(=O)oc2)c(O)c1 | 71.2 | 
2 | COc1ccc(COC(=O)CCc2cc(O)c(NS(=O)(=O)c3cc(F)cc(F)c3)c(O)c2)cc1OC |  | Activity [2]: Toxic
3 | CCCCCc1cc(O)c(NC(=O)Nc2cccc3ncccc23)c(O)c1 | 40.5 | 
4 | CCCCCc1cc(O)c(NS(=O)(=O)c2ccc(-c3ccccc3)cc2)c(O)c1 | 4.42 | 
5 | COc1cc(COC(=O)CCc2cc(O)c(NS(=O)(=O)c3cc(F)cc(F)c3)c(O)c2)ccc1O |  | Activity [3]: Non-Toxic
6 | C=C(C)[C@@H]1CCC(C)=C[C@H]1c1c(O)cc(CCCCC)cc1O [CANNABIDIOL] | 38.5 | Activity [3]: Non-Toxic; Kd [4]: 110 µM

More lines, main results first:

Row | EC50 [1] [µM] | SMILES | further results
7 | 39.8 | CCCCCc1cc(O)c(NS(=O)(=O)c2cc(F)cc(F)c2)c(O)c1 | 
8 | 10.4 | CCCCCc1cc(O)c(NS(=O)(=O)c2cccc(C(F)(F)F)c2)c(O)c1 | 
9 | 36.4 | CCCCCc1cc(O)c(NS(=O)(=O)c2cccc3cccnc23)c(O)c1 | 

— ChEMBL document CHEMBL5325459, “Design, synthesis, and analgesia evaluation of novel Transient Receptor Potential Vanilloid 1 (TRPV1) agonists modified from Cannabidiol (CBD)” (Bioorg Med Chem, 2023)
